Here are results for 2 compounds from ChEMBL document CHEMBL1131851, “Synthesis and fluorescence properties of Oregon Green 514 labeled peptides” (Bioorg Med Chem Lett, 1999).

Usually pKa stands for the pH at which an ionisable group is half protonated. Lower therefore signals a group that gives up its proton readily.

Structures are written as SMILES.

The nature of this data set: Acid dissociation constant of the compound. It counts as ADME.

`O=C(O)CSc1c(F)c(F)c(C(=O)O)c(-c2c3cc(F)c(=O)cc-3oc3cc(O)c(F)cc23)c1F`: the pKa is 4.8. `O=C(O)c1ccc(C(=O)O)c(-c2c3ccc(=O)cc-3oc3cc(O)ccc23)c1` [6-Carboxyfluorescein] came in with a pKa of 6.4.
